{"source": "paper PMC10525132", "about": "“Potent Antioxidant and Anti-Tyrosinase Activity of Butein and Homobutein Probed by Molecular Kinetic and Mechanistic Studies” (Antioxidants, 2023)", "key": {"[1]": {"details": "cited from earlier work"}, "[2]": {"set-up": "method as in doi:10.1021/ja00310a049", "details": "reference value used for calibration, cited from earlier work"}, "[3]": {"assay": "Inhibited autoxidation of methyl linoleate in Triton X-100 micelles (O2 uptake kinetics)", "procedure": "Autoxidation studies were performed as previously described, with slight modifications. In a typical experiment, 2.5 mL of air-saturated buffered (PBS, 50 mM, pH 7.4) aqueous dispersion of MeLin (final concentration 2.74 mM) in Triton™ X-100 (final concentration 16 mM) micelles were prepared by vortex mixing. A fresh stock solution of AAPH was added (final concentration 2.5 mM), immediately followed by addition (5–30 μL) of a stock solution of the antioxidant in acetonitrile (final concentration of 1–20 μM) and by additional vortex mixing (5 s). The mixture was sealed in a 2 mL glass vial provided with a PTFE-coated stirring bar and capped with the O2 sensor. The sample was equilibrated at 37 °C in a thermostatted bath equipped with a sealed magnetic stirrer, and oxygen concentration was monitored with time as previously described. Oxygen consumption in the absence of antioxidants was compared with that recorded in the presence of butein, homobutein, or α-tocopherol (α-TOH) as the reference antioxidant. […]. The stoichiometric factor n was determined from the length of the inhibited period τ by Equation (3). The rate of initiation Ri was determined in preliminary experiments using α-TOH as the inhibitor (n = 2) by Equation (3). (1) −d[O2]/dt=kp[RH]Ri/nkinh[AH]+Ri (2) R0/Rinh−Rinh/R0=nkinh[AH]/2ktRi (3) n=Riτ/[AH]\nTo study the antioxidant activity of butein and homobutein on quantitative grounds, we performed inhibited autoxidation studies using biomimetic neutral micelles of methyl linoleate (MeLin) in aqueous Triton™ X-100 (with 50 mM PBS, pH 7.4, 37 °C), since it is a well-validated model we and others used in previous studies. The reaction kinetics was followed by monitoring oxygen consumption via miniaturized NIR-fluorescence-quenching O2 probes, according to a previously validated protocol, both in the absence and in the presence of different concentrations of butein or homobutein. The reaction was initiated thermally in the aqueous phase by the controlled decomposition of the azo compound AAPH so as to clearly distinguish the chain-breaking mechanism from other efficacies based on interference with the initiation process (e.g., the Fenton reaction by metal chelation) and α-TOH was used as the reference antioxidant."}}, "note": "Several values for one entry are separate records, joined by “and”; a condition that tells them apart may be missing. Equal values may be shown once. Read-outs that look alike come from different tables or passages of the source.", "data": [{"molecule": "CC(C)(C)c1cc(O)c(O)c(C(C)(C)C)c1", "note": "[3,5-di-tert-butylcatechol]", "values": [{"measurement": "BDEOH", "setting": "[1]", "value": 78.2, "unit": "kcal/mol"}]}, {"molecule": "CC(C)(C)c1cc(C(C)(C)C)c(O)c(C(C)(C)C)c1", "note": "[TBP, 2,4,6-tri-tert-butylphenol]", "values": [{"measurement": "BDEOH", "setting": "[1]; reference phenol", "value": 80.1, "unit": "kcal/mol"}]}, {"molecule": "OCCc1ccc(O)c(O)c1", "note": "[hydroxytyrosol]", "values": [{"measurement": "BDEOH", "setting": "[1]", "value": 80.8, "unit": "kcal/mol"}]}, {"molecule": "Cc1c(C)c2c(c(C)c1O)CC[C@@](C)(CCC[C@H](C)CCC[C@H](C)CCCC(C)C)O2", "note": "[α-TOH, (R,R,R)-α-tocopherol]", "values": [{"measurement": "BDEOH", "setting": "[1]", "value": "77.1 ^3 kcal/mol"}, {"measurement": "n (stoichiometric factor of peroxyl radical trapping)", "setting": "[2]", "value": "2 and 2 ^2"}, {"measurement": "n (stoichiometric factor of peroxyl radical trapping)", "setting": "[2]; listed as tocopherol", "value": 2.0}, {"measurement": "kinh (inhibition rate constant)", "setting": "[3]; AAPH (2.5 mM) initiated autoxidation of MeLin/Triton X-100 micelles, 37 °C, pH 7.4", "value": "22.4 ± 5.8 10^3 M^−1s^−1"}, {"measurement": "kinh (inhibition rate constant)", "setting": "[3]; MeLin in Triton X-100 micelles, pH 7.4, 37 °C", "value": "(2.2 ± 0.6) × 10^4 M^−1s^−1"}]}]}
